Measurements as given in ChEMBL document CHEMBL4024772, “Aniline-Based Inhibitors of Influenza H1N1 Virus Acting on Hemagglutinin-Mediated Fusion” (J Med Chem, 2018).

Key:
Test in all cases: microbe, parasite or virus in culture
Assay type in all cases: functional, cell-based
Conditions in all cases: MDCK
Influenza A virus [1] = tested on: Influenza A virus
Influenza A virus [2] = tested on: Influenza A virus; remark: listed apart in the source
Influenza A virus [3] = tested on: Influenza A virus; remark: listed apart in the source

Compound	EC50 (Influenza A virus [1])	EC50 (Influenza A virus [2])	EC50 (Influenza A virus [3])
CC(C)c1ccccc1NCCN1CCCCCC1	1.5 µM	> 100 µM	> 100 µM
NC(=O)c1ncn([C@@H]2O[C@H](CO)[C@@H](O)[C@H]2O)n1 [RIBAVIRIN]	15 µM		
CC(C)c1ccccc1NCCN1CCCCC1	2.3 µM	> 100 µM	> 100 µM
